Assay results published in article PMC8504577, “Evaluation of a Clinically Relevant Drug–Drug Interaction Between Rosuvastatin and Clopidogrel and the Risk of Hepatotoxicity” (Frontiers in Pharmacology, 2021).

Legend:
[1] = target: T1, BCRP (Homo sapiens, UniProt Q9UNQ0); conditions: CP at 75 and 300 mg
T1 sequence (Q9UNQ0 1-655): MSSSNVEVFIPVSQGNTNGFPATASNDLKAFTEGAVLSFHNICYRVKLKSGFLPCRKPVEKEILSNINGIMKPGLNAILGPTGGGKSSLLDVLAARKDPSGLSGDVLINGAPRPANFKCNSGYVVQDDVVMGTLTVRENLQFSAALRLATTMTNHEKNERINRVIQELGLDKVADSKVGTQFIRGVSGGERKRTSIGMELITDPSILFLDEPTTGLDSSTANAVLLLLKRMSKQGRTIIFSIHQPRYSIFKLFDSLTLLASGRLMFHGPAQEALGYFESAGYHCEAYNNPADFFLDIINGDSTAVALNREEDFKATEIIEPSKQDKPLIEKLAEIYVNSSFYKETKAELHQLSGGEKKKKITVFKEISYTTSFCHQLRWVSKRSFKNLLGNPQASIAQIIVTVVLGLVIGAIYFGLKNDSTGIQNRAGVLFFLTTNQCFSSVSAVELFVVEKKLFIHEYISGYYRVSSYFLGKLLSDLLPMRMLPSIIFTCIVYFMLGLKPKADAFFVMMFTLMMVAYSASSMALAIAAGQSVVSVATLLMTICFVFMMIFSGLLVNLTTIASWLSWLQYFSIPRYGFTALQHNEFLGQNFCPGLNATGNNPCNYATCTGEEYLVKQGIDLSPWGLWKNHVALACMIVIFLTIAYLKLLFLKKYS

[2] = test system: rats; assay: Biochemical examination of liver function indices in rats; format: in vivo, Sprague-Dawley rats; conditions: rat plasma
Source text: After the last sample in the plasma pharmacokinetic study, all rats were deeply anesthetized and exsanguinated by severing the abdominal aorta. Blood and liver samples were harvested. The plasma was used for the assay of alanine aminotransferase (ALT), aspartate aminotransferase (AST), total bilirubin (TBIL), unconjugated bilirubin (IBIL), and conjugated bilirubin (DBIL) by an automatic analyzer (Beckman Coulter, Brea, CA, United States).

[3] = Cytotoxicity (MTT, AST, LDH) in cryopreserved human hepatocytes; format: cell-based; conditions: human, cryopreserved primary human hepatocytes; 96 h incubation
Experimental: Cytotoxicity was determined with MTT assay in cryopreserved human hepatocytes. Thawing and plating of cryopreserved hepatocytes were carried out according to the manufacturer’s protocol. […] 11 μL of 5 mg/ml MTT was added to each well of the plate, and then the plate was incubated at 37°C for 3–4 h. After the medium was aspirated, 150 μL of DMSO was added to dissolve the formazan. The absorbance at 570 nm was measured and corrected for background absorption at 690 nm using a SpectraMax® i3 plate reader (Molecular Devices, Silicon Valley, CA, United States). AST and LDH levels in the medium of parallel processed plates were measured by commercially available assay kits. […] All experiments were performed in triplicate.

[4] = Group II single i.v. dose RSV + vehicle control
[5] = Group IV single p.o. dose RSV + vehicle control

COC(=O)[C@H](c1ccccc1Cl)N1CCc2sccc2C1 [CP, clopidogrel]
[I2]/IC50 BCRP ratio [1]: > 10

CC(C)c1nc(N(C)S(C)(=O)=O)nc(-c2ccc(F)cc2)c1/C=C/[C@@H](O)C[C@@H](O)CC(=O)O [RSV, rosuvastatin]
ALT [2, 4]: 54.00 ± 14.17 U/L
AST [2, 4]: 210.50 ± 36.59 U/L
DBIL [2, 4]: 1.12 ± 0.11 µmol/L
IBIL [2, 4]: 0.88 ± 0.18 µmol/L
TBIL [2, 4]: 2.00 ± 0.22 µmol/L
ALT [2, 5]: 52.00 ± 6.68 U/L
AST [2, 5]: 212.50 ± 33.72 U/L
DBIL [2, 5]: 0.58 ± 0.33 µmol/L
IBIL [2, 5]: 0.57 ± 0.36 µmol/L
TBIL [2, 5]: 1.13 ± 0.42 µmol/L
IC50 at 96 h [3]: 14.8 µM
